In general, IC50 refers to the midpoint of a concentration-inhibition curve. What is called ΔTm is the shift of the melting midpoint relative to a reference.

The source of these data is patent US12497396B2, “Nitrogen-containing heterocyclic derivatives, method therefor and application therefor as inhibitors of KRAS G12C for the treatment of cancers” (SHANGHAI HANSOH BIOMEDICAL CO., LTD., priority 2019, dated 2025).

The subject of experiment [1] is human lung cancer NCI-H358 cell xenograft. Briefly: In vivo pharmacodynamics on human lung cancer NCI-H358 cell xenograft tumor model. On the set-up: species or system BALB/c nude mice. Here is the method:
• BALB/c nude mice, 6-8 weeks old, female, purchased from Shanghai Xipuer-Bikai Experimental Animal Co., Ltd. 6.3.2 Cell Culture and Cell Suspension Preparation • 1) MiaPaca-2 cells were taken out from the cell bank and resuscitated with DMEM medium (DMEM+10% FBS), the resuscitated cells were placed in a cell culture flask (labeled with cell type, date, name of cultured person, etc.) and cultured in a CO2 incubator (incubator temperature was 37° C., CO2 concentration was 5%) (the method of resuscitating NCI-H358 cells was the same as MiaPaca-2 cells in test embodiment 5, and the culture medium was changed to RPMI-1640 medium). • 2) Passage was conducted every three to five days, and the cells was continued to be cultured in CO2 incubator after passage. The process was repeated until the cell count meets the in vivo pharmacodynamic requirements. • 3) MiaPaca-2 cells were collected and counted by automatic cell counter, according to the counting results, the cells were re-suspended with PBS and Matrigel (ratio was 1:1) to make cell suspension (cell density was 5×10^7/mL), then placed in a ice box for use (NCI-H358 cells were re-suspended with PBS without adding Matrigel, cell density was 1×10^8/mL). 6.3.3 Sample Preparation: • 1) Solvent: solvent (0.5% CMC-Na+1% Tween 80), storage condition: 4° C.
0.5 g of CMC-Na was weighted, dissolved in ddH2O, then 1.0 mL of Tween 80 was added and the mixture was stirred to mix well, and the volume was finally set to 100 mL. • 2) Compound to be tested (10 mg/kg) was prepared:
8.42 mg of AMG510 compound was weighted, 8.260 mL of solvent was added, a uniform solution was obtained by ultrasound, vortexing and stirring.
7.81 mg of embodiment compound 165-1 was weighted, 7.654 mL of solvent was added, a uniform solution was obtained by ultrasound, vortexing and stirring.
• 1) Before inoculation, nude mice were labeled with disposable universal ear tags of rats and mice; • 2) when inoculating, the cell suspension was mixed well, 0.1-1 mL cell suspension was extracted with a 1 mL syringe, bubbles were removed, and then the syringe was put on an ice bag for later use; • 3) the nude mice was held with left hand, the right back of nude mice near the right shoulder (inoculation site) was disinfected with 75% alcohol, and inoculation was started after 30 seconds; • 4) the experimental nude mice were inoculated in turn (each mouse was inoculated with 0.1 mL of cell suspension); 6.3.4 Tumor-Bearing Mouse were Measured, Grouped, and Administered: • 1) According to the tumor growth, the tumor was measured on the 18th day after inoculation, and the tumor size was calculated. tumor volume (mm^3)=length (mm)×width (mm)×width (mm)/2 Tumor volume calculation: • 2) The tumor-bearing mice were grouped according to their body weight and tumor size using a randomized grouping method. • 3) According to the grouping results, the administration of the test drug was started (administration method: oral administration; administration dose: 10 mg/kg; administration volume: 10 mL/kg; administration frequency: once a day; administration period: 21 days; solvents: 0.5% CMC/1% Tween 80). • 4) The tumor was measured and weighed twice a week after the test drug was started to be given. • 5) After the experiment, all animals were euthanized. • 6) Data was processed with software such as Excel. […]
(In general: In xenograft studies the graft and the host belong to different species.)

Experiment [2] concerns NCI-H358 cells (KRAS G12C mutant cell line). Description: Inhibition of NCI-H358 cell proliferation (CellTiter-Glo, 72 h). It counts as cell-based, human. The note with it: Homo sapiens. An outline of the steps: (§1)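 Cells were seeded overnight at 37 °C, 5% CO2, then exposed to serially diluted compound (DMSO/medium) alongside a solvent control for 72 h. Viability was read by CellTiter-Glo luminescence, and IC50 was derived by nonlinear regression of inhibition rate against concentration.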

Experiment [3] has as its system Mia PaCa-2 cells (KRAS G12C mutant cell line). Briefly: Inhibition of Mia PaCa-2 cell proliferation (CellTiter-Glo, 72 h). It counts as cell-based, human. The note with it: Homo sapiens. An outline of the steps:
as §1
Background: Cellular ATP, detected with luciferase, serves as a proxy for viable cell number.

The target of the next experiment is T1, human KRAS G12C protein (Homo sapiens, UniProt P01116, G12C).
T1 construct: purchased Beijing SinoBiological Co., Ltd. 12259-H07E2
Description: Thermal shift: melting temperature of KRAS G12C protein. The experiment is classed as binding. An outline of the steps:
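5.37 μM (final) human KRAS G12C in […] HEPES pH 7.5, 1 mM DTT, 150 mM NaCl, 5×SYPRO Orange, incubated 1 h at room temperature in the dark. Melt curve run from 25 to 95° C at 0.03° C/s. ΔTm = treated Tm minus DMSO control Tm.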

Experiment [4] concerns phosphorylated ERK in KRAS G12C mutant cells Mia PaCa-2. Briefly: Inhibition of phosphorylated ERK level in Mia PaCa-2 cells (LANCE Ultra). It counts as cell-based. The note with it: Homo sapiens, 2 hours, read-out: Mia PaCa-2 pERK IC50. An excerpt:
As a preferred embodiment of the present disclosure, the method for detecting the inhibitory activity of phosphorylated ERK level is as follows: through cell culture, adding different concentrations of compound solutions to the cultured cells, continuing the culture for a period of time, lysing the cells, followed by centrifugation and […]; • further, the method of cell culture is: adjusting the cells to a suitable cell concentration with a complete medium, preferably the cell concentration is 1×10^6/mL, and spreading the cell suspension on a well plate for culture.
When Mia PaCa-2 cells were cultured to the appropriate fusion level, Mia PaCa-2 cells were collected, and the cell density was adjusted to 1×10^6/mL using complete culture medium, the cell suspension was spread on a 96-well plate, 50 μL per well, and placed adherent to the wall in a 37° C., 5% CO2 incubator overnight, compound solutions with different concentrations were prepared using DMSO and complete culture medium, a solvent control was set, the compound solution was added to a 96-well plate, 25 μL per well, and placed in a 37° C., 5% CO2 incubator for 2 hours of continuous culture, the supernatant was discarded from the cell culture plate, 50 μL of lysis solution was added to each well, and lysing was performed for 30 minutes by shaking at room temperature, then the mixture was centrifuged at 1000 rpm for 1 minute, 15 μL of supernatant was transferred to 384 well plate, 5 μL of detection mixture (Eu-labeled anti-ERK1/2 (T202-Y204) antibody with final concentration of 0.5 nM and ULight labeled anti-ERK1/2 antibody with final concentration of 5 nM) was added to each well, centrifuged at 1000 rpm for 1 minute and mixed uniformly, the reaction was carried out overnight at room temperature, the plate was read with BioTek Synergy H1, and the signal values was detected at 620 nm and 665 nm emission wavelengths by time-resolved fluorescence program.
The ratio of the signal values at 665 nm and 620 nm emission wavelength were calculated, and the ratio was used to calculate the inhibition rate, the concentration and the inhibition rate were fitted to a nonlinear regression curve using Graphpad Prism software, then the IC50 value was obtained.
For orientation: Time-resolved FRET reads energy transfer from a long-lived donor to a nearby acceptor.

As for `C=CC(=O)N1CCN(c2nc(=O)n(-c3c(C)ccnc3C(C)C)c3nc(-c4c(O)cccc4F)c(F)cc23)[C@@H](C)C1` [AMG-510, reference compound], in experiment [1] (Day 15, 10 mpk oral once a day), the “TGI (%) Day 15” value came to 38.02%; the “tumor volume (mm^3, Mean ± SD) Day 15” value is 324 ± 204 mm^3; the “ΔT/ΔC(%) Day 15” value turned out to be 61.98%. For the same compound, the “tumor volume (mm^3, Mean ± SD) Day 0” value in experiment [1] (baseline Day 0, 10 mpk oral once a day) is 202 ± 72 mm^3.
For `C=CC(=O)N1CCN(c2nc(=O)n(-c3c(SC)ccnc3C(C)C)c3nc(-c4c(N)cccc4F)c(F)cc23)[C@@H](C)C1` [Embodiment 134, 4-((S)-4-acryloyl-2-methylpiperazin-1-yl)-7-(2-amino-6-fluorophenyl)-6-fluoro-1-(2-isopropyl-4-(methylthio)pyridin-3-yl) pyrido [2,3-d] pyrimidin-2 (1H)-one], the concentration for half-maximal inhibition (IC50) in experiment [2] was found to be 23 nM; in experiment [3], 30 nM; in experiment [4], 30 nM. Besides, the “Tm (° C.)” value at human KRAS G12C protein (KRAS G12C protein 5.37 μM with compound 10 μM, 1 hour incubation) amounted to 64.4 °C. Moreover, the ΔTm at 10 µM at human KRAS G12C protein (compound 10 μM, Tm minus Tm of DMSO solvent control) stood at 15.8 °C.
